What was measured:
biofilm on RO membrane = test: Biofilm grown on RO membranes for 15 days with input water containing chloramines, measured with CLSM; format: cell-based
Method: Biofilm was allowed to grow on the surface of miniature RO membranes (ESNA1-LF, Hydranautics, USA), equipped within a device having the membrane held within a closed chamber, the chamber comprising a feed inlet, brine outlet and permeate outlet for fluids, where the pressure obtain from the desalination pilot pressurized flows.
For biofilm analysis a 5×5 mm membrane segment was taken from each of the tested membranes. Each segment was inserted into an Eppendorf test tube comprising 2 ml 0.24% sterilized TRIS solution (pH 7.2) and the test tubes were turned upside down gently several time. […]
The staining of the RO membranes with SYTO9 and Tetramethylrhodamine, provided information about the presence and quantity of microorganisms and the extracellular polymeric substance (EPS), respectively. The CLSM images were scanned and analyzed with PHLIP software (http://sourceforge.net/projects/phlip/) which enabled quantization of CLSM data with respect to the biovolume of the biofilm. […]
In addition, water from sampling Point No. 3 (SP3) was allowed to flow through miniature membrane facilities (as described above) in parallel, for 15 days in order to allow growth of biofilm on the surface of the membranes. After 15 days, the membranes were treated and analyzed as described above in order to determine the resulting biovolume. […]

microorganisms = test: Biofouling index on the biosensor after 24 h circulation of water dosed with hypochlorite; format: cell-based
Method: The change in color on the biosensor was determined for each water sample in six repetitions as described above.
The biofouling Index was determined as follows: Biofouling Index=100×PPP×(1−PPP)+(100−LL)×PPP
For simplicity, the Biofouling Index was translated into a biofouling score, A, B, C, . . . F, according to ranges of biofouling, with lower biofouling range, representing low biofouling identified as score A. The correlating score is identified in Table 7.
Hypochlorite was dissolved to obtain a stock solution of 140 mg/L. Dilutions of this stock solution were as detailed in Table 9. The dilutions were injected into the water circulating in the biosensing apparatus and the total chlorine concentration was measured for each dilution. As control, no hypochlorite was added.
Circulation conditions: flow: 90 ml/min; circulation container volume: 2 L; duration of circulation: 24 hours at a temperature of 35° C.

[1] = system: biofilm on the membrane surface; test: Normalized permeate flow of the pilot plant with low dose of chloramines
Method: FIG. 7 provides a graph showing the normalized permeate flow as a function of operation time for a pilot plant with low dose of chloramines as determined with the bio-sensor test. Also examined was the effect of preventing the development of biofilm on the membrane surface when 4.2 mg/L hypochlorite were added.

Effect on normalized permeate flow ([1]; 4.2 mg/L hypochlorite, 320 hours, Stage I, Stage II and Stage III): no decrease in permeate flow
SMILES: OCl [Sodium hypochlorite, sodium hypochlorite]
Biovolume of biofilm on the membrane relative to that without hypochlorite (biofilm on RO membrane; 4.2 mg/L hypochlorite (1.5 mg/L chloramines), injected 4 hours per day, Stage I input water): about ⅕ | Thickness of biofilm relative to that in the absence of chloramines (biofilm on RO membrane; hypochlorite added (chloramines)): about ⅕ | Amount of hypochlorite sufficient to prevent biofouling (close to zero biofouling) (microorganisms; 24 h circulation, 35° C.): 4.2 mg/L | Biofouling index after addition of hypochlorite (drop from control level C) (microorganisms; all tested amounts of hypochlorite, control C, 24 h circulation): B (biofouling index <6) | Biofouling index (microorganisms; sodium hypochlorite 0.7 mg/l, total chloramines 0.17 mg/l, 24 h circulation, 35° C.): B (biofouling index <6) | Biofouling index (microorganisms; sodium hypochlorite 1.4 mg/l, total chloramines 0.29 mg/l, 24 h circulation, 35° C.): B (biofouling index <6) | Biofouling index (microorganisms; sodium hypochlorite 2.1 mg/l, total chloramines 0.45 mg/l, 24 h circulation, 35° C.): B (biofouling index <6) | Biofouling index (microorganisms; sodium hypochlorite 2.8 mg/l, total chloramines 0.94 mg/l, 24 h circulation, 35° C.): B (biofouling index <6) | Biofouling index (microorganisms; sodium hypochlorite 2.8 mg/l, total chloramines 1.0 mg/l, 24 h circulation, 35° C.): B (biofouling index <6) | Biofouling index (microorganisms; sodium hypochlorite 4.2 mg/l, total chloramines 1.42 mg/l, 24 h circulation, 35° C.): B (biofouling index <6) | Biofouling index (microorganisms; sodium hypochlorite 4.2 mg/l, total chloramines 1.48 mg/l, 24 h circulation, 35° C.): B (biofouling index <6) | Biofouling index (microorganisms; sodium hypochlorite 4.6 mg/l, total chloramines 1.63 mg/l, 24 h circulation, 35° C.): B (biofouling index <6) | Biofouling index (microorganisms; sodium hypochlorite 5.6 mg/l, total chloramines 1.86 mg/l, 24 h circulation, 35° C.): B (biofouling index <6) | Biofouling index (numerical, FIG. 4) (microorganisms; total chlorine concentration of 1.4 mg/L and more): close to zero | Effect on biofouling on the membranes ([1]; treatment with hypochlorite, data not shown): reduced biofouling on the membranes

— patent US9637770B2, “Methods and devices for handling biofouling” (MEKOROT WATER COMPANY, LTD., priority 2011, dated 2017)
